Legend:
[1] = tested on: caspase-9; assay: Caspase-9 activity (Ac-LEHD-AFC cleavage) in SH-SY5Y cells; format: cell-based, human; conditions: 1 mM, 96 h
Procedure: (§1) Measurement of the activities of the various caspases is based on the ability of the caspases to cleave specific fluorescent substrates: Ac-DEVD-AFC for caspase-3, Ac-IETD-AFC for caspase-8, or Ac-LEHD-AFC for caspase-9. SH-SY5Y neuronal cells were incubated in 48-well plates with either furosemide pyridinium (1 mM) for 96 h or with MPP+ (1 mM) for 6 h, then 24 h of incubation with no MPP+. After incubation, the cells were trypsinized, then rinsed with PBS and counted, then harvested in 100 μl of buffer containing 30 mM HEPES, 0.3 mM EDTA, 100 mM NaCl, 0.15% Triton X-100, and 10 mM DTT. The cell extract was then incubated for 1 hour at 37° C. with the specific substrate (100 μM) in a 96-well plate. Fluorescence was measured at λex400 nm and λem505 nm in a fluorescence detection plate reader (TECAN Infinite M1000) (Yue et al., supra). The results were expressed as percentages relative to the measured activity of cells cultured under the same conditions and not subjected to any treatment.

[2] = tested on: caspase-8; assay: Caspase-8 activity (Ac-IETD-AFC cleavage) in SH-SY5Y cells; format: cell-based, human; conditions: 1 mM, 96 h
Procedure: as §1

[3] = tested on: α-synuclein; assay: Cellular accumulation of α-synuclein (Western blot) in SH-SY5Y cells; format: cell-based, human; conditions: 1 mM, 96 h incubation
Procedure: Cells were incubated under the same conditions as above with furosemide pyridinium (1 mM, incubation: 96 h) and MPP+ (1 mM, incubation: 6 h, wait 24 h). After incubation, the cells were trypsinized, rinsed with PBS, counted, then harvested in 100 μl of buffer containing: 250 mM sucrose; 70 mM KCl; 137 mm NaCl; 4.3 mm NaH2PO4; 1.4 mm KH2PO4, pH 7.2; and […] digitonin. Incubation at 4° C. was then conducted for 5 minutes before centrifuging at 13,000 g for 5 minutes to separate the cytosolic and lysosomal fraction from the mitochondrial fraction. Deposits of cytosolic fraction in the Western blot were adjusted according to the number of cells. The protein samples were diluted in 4× Laemmli and were then heated for 3 minutes at 95° C. to denature. They were loaded into the wells of gel. In addition to the samples, a molecular weight marker (Fermentas) was deposited in the gel. […] The transfer was carried out on PVDF membrane. The transfer was done in transfer buffer (25 mM Tris, 192 mM glycine, 10% methanol) overnight at 4° C. and 30V or for 2 hours at 4° C. and 80V. […] Then the membranes were immunolabeled for 1.5 h at room temperature with a primary antibody diluted in 1×PBS/0.2% Tween/3% milk. […] The primary antibody used was anti-α-synuclein, 1:500 (visualized with an anti-rabbit secondary antibody, 1:10,000).

[4] = tested on: Sprague Dawley rats; assay: EEG and sleep/arousal telemetry monitoring of exposed rats; format: in vivo, rat; conditions: 20 mg/kg/day oral 7 days
Excerpt: Male albino Sprague Dawley rats (adults weighing […]) were housed in a temperature-controlled room with free access to food and water.
A platform for electrophysiological and behavioral monitoring of the rats was used. For this, a subcutaneous implant (Data Science) was placed in the rats which allowed the EEG to be recorded by telemetry, leaving the animal completely free to move about. The cage was equipped with a video camera (10 frames per second) and an infrared light to allow recordation of the animal's activity. The EEG and video sequences were recorded in sequences of 10 seconds, and a set of variables was calculated for each sequence. The use of dedicated software allowed integration of these variables over the entire recording to detect changes in the animal's activity, EEG, and circadian rhythms. Each animal served as its own control because it was recorded for 5 days prior to furosemide pyridinium administration. The solution of furosemide pyridinium (20 mg) was dissolved in dimethylsulfoxide (DMSO, 200 μl) and then diluted with water (50 ml). The solution was replaced every day and administered for 7 days in the drinking water at a dose of 20 mg/kg. The rats were then sacrificed 5 weeks after the last dose. The rats were anesthetized with pentobarbital and infused intracardially with saline ([…]), then fixed with 4% paraformaldehyde. After the infusion, the brain was removed and placed in NaCl (0.9%) at 4° C. The brain was frozen in Tissue Tek immersed in a cold isopentane bath. Coronal sections of eight microns were obtained using a cryostat and were processed for immunocytochemistry (labeling the alpha-synuclein).

[5] = tested on: complex I; assay: Complex I activity of mitochondria from striata of exposed mice; format: in vivo, mouse; conditions: 20 mg/kg/day oral 7 days, 30 days after end of exposure
Procedure: The kinetics of the oxidation reaction of NADH into NAD+ at 340 nm at 37° C. were continuously monitored by spectrophotometry using a JASCO V-530 spectrophotometer or a TECAN 1000M Infinite plate reader, set to a wavelength of 340 nm for 3 min. The amount of mitochondria extract to obtain the maximum activity introduced into the reaction volume was 100 μg with the spectrophotometer and 10 μg with the reader. Each manipulation must be done at substrate saturation, which is an NADH concentration of 160 μM. Mitochondria previously divided into multiple aliquots were frozen, then quickly thawed a few minutes before use. In a first step, the mitochondria extract was introduced into the hypotonic buffer (50 mM KH2PO4 and 10 mM MgCl2, pH=7.2 at 37° C.) for 2 minutes to break open the mitochondrial membranes and access the respiratory chain (Chretien et al., Biochem Biophys Res Commun, 2003, 301(1):222-4). […] The slope of the kinetics was then measured. […] The inhibition percentage was then calculated. […]
For each mouse sacrificed, cortex and striatum samples had been previously collected and processed to extract the mitochondria. The activity of the mitochondrial respiratory chain and of complex I were determined as described in Part B above, in the “Materials and Methods” subsection (without addition of furosemide pyridinium or an analog to the medium).

NS(=O)(=O)c1cc(C(=O)[O-])c(-[n+]2cccc(O)c2)cc1Cl [furosemide pyridinium, 4-chloro-2-(3-hydroxypyridinium-1-yl)-5-sulfamoylbenzoate]
enzymatic activity of caspase-9 compared to untreated cells [1]: 170% | change in caspase-8 activity [2]: did not induce significant changes | increase in the total amount of α-synuclein compared to control cells [3]: 40% | increase in number of REM sleep phases ([4]; five weeks after end of exposure): 2 × | sleep and arousal phases ([4]; five weeks after end of treatment): do not indicate changes | amplitude of the electroencephalogram ([4]; five weeks after end of treatment vs before exposure): significant decrease | decrease in activity of complex I of striatal mitochondria vs control animals [5]: 49%

From patent US9744250B2, “Chemical model of a neurodegenerative disease, method for preparation and uses of same” (priority 2012, dated 2017)
